Here are results for nine compounds from patent publication US12716890B2, “Macro tissue explant, methods and uses therefor” (Massachusetts Institute of Technology, priority 2017, dated 2026).

Like-named read-outs stand apart in the source and are kept apart here. Numbered stars: 1 amine (or outer) side, 2 acyl side, 3 side chain; on linkers, the order of the positions; unused ones are H or OH. Bridge positions count the residues as written; N and C are the ends. Peptide text beside a SMILES is read from it. X1 = O=C(CCC[*:2])[*:1]

One data set concerns GLP-1 (7-36). Kind of data set: GLP-1 stimulation of intestinal tissue explant, ELISA of GLP-1 (7-36). It counts as cell-based, pigs. The following applies: varying doses for 24 hours. The protocol:
As determined in Example 1, the intestinal tissue explant comprises endocrine cells, determined by the expression of […] and Glucagon-like peptide-1 (GLP-1). Therefore, the ability of the intestinal tissue explant to respond to known GLP-1 stimulants was investigated. Specifically, acetylcholine, LiCl, and glucose were added to the intestinal tissue explant at varying doses for 24 hours, then cells within the apical side of the intestinal epithelium were isolated. The concentration of active cleaved peptide of GLP-1 (GLP-1 (7-36)) of these cell lysates was determined by ELISA analysis. […] The stimulation of GLP-1 secretion by acetylcholine, LiCl and glucose, which act through different pathways, indicated these pathways were intact in the intestinal tissue explant. The Acetylcholine and LiCl act as non-nutrient stimulators of GLP-1 that are reported to simulate GLP-1 activity via neuronal regulation. Glucose triggers GLP-1 activity via nutrient-based pathways.
On the technique in general: An ELISA detects its analyte on a solid surface through an enzyme-linked reagent.

The test system of data set [1] is intestinal tissue explant. It counts as in vitro ADME, pigs. The protocol:
To assemble the intestinal tissue explant system, freshly isolated intestinal tissue from the jejunum was prepared according to the described tissue dissection procedure and mounted on the manufactured interface design with a generic 96 well plate as a receiver plate (Corning® 96 well plates, clear bottom, Corning) or a UV transparent plate (Corning® 96-well UV Plates, Corning). The jejunum was identified as the region of the small intestine approximately 50 cm after the pylorus. The difference between the jejunum and ileum was determined based on anatomical location, the structural differences of the tissue, differences in blood supply, and fat deposition as well as the presence of lymphoid tissue. For the system in 384-well format, a 384 microplate with glass bottom (Greiner Sensoplate™ glass bottom multiwall plates, Sigma) were used. The tissue was then cultured in this system according to the described cultivation protocol for specific ex vivo cultivation time periods. Intestinal perfusion experiments using the system were conducted only once after 24 hours of ex vivo cultivation unless otherwise noted.
For perfusion experiments the following set up was used: Formulation samples were prepared using a liquid handling station (Evo 150 liquid handling deck, Tecan), an automated dispenser (EL406 Combination Washer Dispenser, BioTek Instruments) was used to fill receiver 96 well plates, a microplate reader (Infinite® M1000 PRO, Tecan) was then used for spectrophotometric analysis. Specifically, formulation samples were prepared following a protocol to mix the pre-pared excipient plate 10 times, pipette the appropriate amount of excipient and dispense into a 96-well plate with the appropriate amount of compound already it in. The excipient/compound formulations were then mixed 60 times and then the appropriate amount was pipetted and dispensed onto the tissue explant. All experiments, including sample incubation, were performed at room temperature. […]

In data set [2] the test system is gastrointestinal tissue explants derived from either the esophagus, stomach or small intestine.
Method: To determine responsiveness of the intestinal tissue explant to toxins, a resazurin-based viability analysis was conducted in various segments of the gastrointestinal tract after exposure to chemicals for a 24 hour time period. Resazurin is an oxidation-reduction indicator and established viability assay for mammalian cells. […] Tissue was incubated in multiwell plates containing media in the receiver chamber and various chemicals at different concentrations in PBS in the donor chamber. After 24 hours viability was measured by resazurin-based viability analysis.
Data set [3] in a line: Pharmacokinetic validation in vivo, formulation delivered to duodenum, oxytocin serum ELISA. Conditions: female, Yorkshire, pig, po, pigs, formulation delivered directly to the duodenum, read-out: bioavailability of oxytocin (absolute / average oral). The protocol: All animal procedures were conducted in accordance with protocols approved by the Massachusetts Institute of Technology Committee on Animal Care. For tissue experiments, fresh tissue was obtained from local abattoirs within 20 minutes of euthanization.
Pharmacokinetic validation was performed in vivo. Female Yorkshire pigs between 45 and 50 kg in weight were used. Before every experiment, the animals were fasted overnight and on the day of the procedure, the morning feed was held. The animals were sedated with an intramuscular injection of Telazol (tileramine/zolazepam) 5 mg/kg, xylazine 2 mg/kg and atropine 0.04 mg/kg. The duodenum was accessed endoscopically and the formulation directly delivered to the duodenum. Serial blood sampling from the peripheral veins was performed for quantification of oxytocin. For oxytocin serum quantification, an Oxytocin ELISA kit (Cat. no. ab133050, Abcam) was used according to the manufacturer's protocol. […] To investigate the mechanism of absorption enhancement and to analyze potential local effects of the formulation on the small intestine histologically, a surgical procedure coupled with custom-made devices was developed, that enabled controlled exposure of the formulation on a defined area of the intestinal tissue. E-cadherin stained sections of biopsy samples were used to analyze the disruption of cell-cell adhesions.

The target in a further data set is T1, MDR-1 (Sus scrofa, UniProt K7GMM7).
T1 construct: from tissue; host or cells: pig small intestine explant, cultured ex vivo
Kind of data set: Perfusion of substrate through siRNA-transfected intestinal tissue explant. It counts as in vitro ADME, pigs.

T1 sequence (K7GMM7 1-1248): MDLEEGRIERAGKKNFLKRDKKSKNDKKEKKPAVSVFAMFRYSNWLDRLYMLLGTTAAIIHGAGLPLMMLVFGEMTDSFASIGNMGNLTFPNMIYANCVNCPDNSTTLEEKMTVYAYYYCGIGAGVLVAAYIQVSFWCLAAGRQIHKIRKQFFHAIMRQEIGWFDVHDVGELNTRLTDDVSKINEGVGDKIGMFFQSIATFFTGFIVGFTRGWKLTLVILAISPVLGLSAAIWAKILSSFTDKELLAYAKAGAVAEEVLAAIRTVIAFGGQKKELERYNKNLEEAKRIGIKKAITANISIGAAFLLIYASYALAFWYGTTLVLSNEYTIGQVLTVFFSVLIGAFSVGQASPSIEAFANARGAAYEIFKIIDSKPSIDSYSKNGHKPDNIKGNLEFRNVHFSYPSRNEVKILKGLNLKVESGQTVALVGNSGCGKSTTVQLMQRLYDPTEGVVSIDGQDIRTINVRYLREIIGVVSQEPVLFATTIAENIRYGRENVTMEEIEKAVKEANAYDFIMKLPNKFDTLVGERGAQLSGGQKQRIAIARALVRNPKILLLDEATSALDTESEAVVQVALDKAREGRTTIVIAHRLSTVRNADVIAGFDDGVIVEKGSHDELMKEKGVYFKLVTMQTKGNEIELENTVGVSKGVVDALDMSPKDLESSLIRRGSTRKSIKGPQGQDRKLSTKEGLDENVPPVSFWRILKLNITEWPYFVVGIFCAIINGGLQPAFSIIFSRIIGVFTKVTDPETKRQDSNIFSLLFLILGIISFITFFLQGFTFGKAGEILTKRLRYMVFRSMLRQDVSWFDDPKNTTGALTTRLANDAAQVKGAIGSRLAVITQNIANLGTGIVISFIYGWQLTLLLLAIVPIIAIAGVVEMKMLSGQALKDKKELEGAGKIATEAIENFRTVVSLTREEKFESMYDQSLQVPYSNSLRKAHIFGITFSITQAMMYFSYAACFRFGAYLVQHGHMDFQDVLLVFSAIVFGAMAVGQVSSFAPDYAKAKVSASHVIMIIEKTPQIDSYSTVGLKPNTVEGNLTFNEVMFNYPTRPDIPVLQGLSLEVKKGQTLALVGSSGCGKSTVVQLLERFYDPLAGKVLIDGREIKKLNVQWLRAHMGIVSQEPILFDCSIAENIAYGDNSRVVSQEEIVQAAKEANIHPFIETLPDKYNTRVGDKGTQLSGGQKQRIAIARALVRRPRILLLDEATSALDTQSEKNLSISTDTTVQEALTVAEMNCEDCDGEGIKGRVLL
Method for MDR-1: Specifically, siRNA was delivered to tissue explants using ultrasound by applying 5 second intervals for 1 minute for 40 kHz generated using a separate ultrasound generator (Sonics and Materials, Inc.) and a custom made 96 tip probe. The following siRNAs at concentrations of 1 μm in deionized water were used: Silencer® Select Pre-Designed siRNA (siRNA ID: s3846, Gene Symbol: CYP3A4), Silencer® Select Pre-Designed siRNA (siRNA ID: s10419, Gene Symbol: ABCB1), Silencer® Select Negative Control No. 1 siRNA.

In the case of `[Cl-].[Li+]` [LiCl], the “concentration of GLP-1 (7-36) in cell lysates” value in the data set on GLP-1 (7-36) is given as “increased concentration so of GLP-1 (7-36) in a dose-dependent manner”.

Regarding `CC[C@H](C)[C@@H]1NC(=O)[C@H](Cc2ccc(OC)cc2)NC(=O)CCCSC[C@@H](C(=O)N2CCC[C@H]2C(=O)N[C@@H](CC(C)C)C(=O)NCC(N)=O)NC(=O)[C@H](CC(N)=O)NC(=O)[C@H](CCC(N)=O)NC1=O` [carbetocin] (Y(Me)IQNCPLG-NH2; linker N-5 via X1), in data set [1], the “intestinal absorption/perfusion of model drug formulated with polyethyleneimine (800 Da, end-capped)” value is recorded as “limited increase in intestinal perfusion”.

On to `CCO` [ethanol], for which, in data set [2], the tissue viability entry is recorded as “dose-dependent chemically induced decrease in tissue viability”.

Consider `C=O` [formalin], for which, in data set [2] (24 hours exposure, different concentrations in PBS, esophagus, stomach or small intestine explants), the tissue viability result is on record as “dose-dependent chemically induced decrease in tissue viability”.

For `CO` [methanol], the tissue viability entry in data set [2] is recorded as “dose-dependent chemically induced decrease in tissue viability”.

Consider `CC[C@H](C)[C@@H]1NC(=O)[C@H](Cc2ccc(O)cc2)NC(=O)[C@@H](N)CSSC[C@@H](C(=O)N2CCC[C@H]2C(=O)N[C@@H](CC(C)C)C(=O)NCC(N)=O)NC(=O)[C@H](CC(N)=O)NC(=O)[C@H](CCC(N)=O)NC1=O` [oxytocin], for which, in data set [3], the bioavailability came out at 0.64%.

As to `CNC(=C[N+](=O)[O-])NCCSCc1ccc(CN(C)C)o1` [ranitidine], on MDR-1, the “perfusion after knock-down of MDR-1” value is recorded as “significant change of perfusion”.

Take “Alexa488-insulin: human insulin (recombinant) labeled with Alexa Fluor 488 NHS Ester”: in data set [1], the “intestinal absorption/perfusion of model drug formulated with polyethyleneimine (800 Da, end-capped)” value is reported as “increase the intestinal absorption to various degrees”.

In the case of “Polyethyleneimine [Polyethyleneimine (800 Da, end-capped)]”, the “intestinal perfusion of oxytocin formulated with excipient” value in data set [1] is recorded as “increased the intestinal perfusion of oxytocin several fold”.
